The values that follow are results of earlier work, collected in US20060148027A1, “Sprouty and SPRED protein biosensors” (Board of Regents, the University of Texas System, priority 2005, published 2006).

Each structure is given as a SMILES string.

The conditions of the series: known potential of the reference redox dye.

For `Cc1cc2nc3cc(C)c(N)cc3[n+](-c3ccccc3)c2cc1N.[Cl-]` [Safranine O], the redox potential is −289 mV.
